Test results taken from patent US20040204488A1, “S-[2-[(1-Iminoethyl)amino]ethyl]-2-methyl-L-cysteine maleate crystalline salt” (priority 2003, published 2004).

Legend:
Type in all cases: physicochemical
[1] = physchem; details: pKa of amidine ion
Description: The parent S-[2-[(1-Iminoethyl)amino]ethyl]-2-methyl-L-cysteine molecule has 3 ionizable groups and can exist in 4 ionization states.
At low pH, the molecule exists as a +2 charged free acid, with the carboxylic acid, amine and amidine moieties protonated. This is the ionization state for the dihydrochloride salt. The initial lots of S-[2-[(1-Iminoethyl)amino]ethyl]-2-methyl-L-cysteine (dihydrochloride) contained around 0.3 eq of excess HCl.
As the pH is increased, the carboxylic acid group is the first group to deprotonate, and this produces a net charge on the molecule of +1. If the pH increase is generated by addition of sodium hydroxide to S-[2-[(1-Iminoethyl)amino]ethyl]-2-methyl-L-cysteine, the sodium dihydrochloride salt is formed. If the increase in pH is due to removal of chloride ions by anion exchange processing, the product is the monohydrochloride salt with no sodium.
A positive charge still resides on the amidine, and a negative charge still resides on the carboxyl group. If such material is made by the addition of sodium hydroxide to the dihydrochloride, the resulting product is the monohydrochloro sodium salt, mixed with one equivalent of sodium chloride. The material prepared by the anion exchange resin approach is the free zwitterion.
Further increases in pH lead to deprotonation of the amidine ion (pKa ˜12.5). […]

[2] = Pseudo-titration in water with IRA-400(OH) anion exchange resin (pH vs resin added)
Procedure: 60 g of Amberlite IRA400 (OH) resin was prewashed with 4.7 percent (by weight) ammonium hydroxide (50 ml of 28 percent ammonium hydroxide, 250 ml deionized water), followed by extensive washing with deionized water. The final conductivity was 6.1 μS.
(§1) Cation exchange column cuts containing approximately 0.9 g of S-[2-[(1-Iminoethyl)amino]ethyl]-2-methyl-L-cysteine di-hydrochloride in 142 ml HCl/water solution, were concentrated on a rotary evaporator at 60° C. to an oil. To the oil, diluted to 60 ml with deionized water, was added aliquots of 0.5 g of washed anion exchange resin while stirring. At five minutes after each aliquot of resin was added, the solution pH was measured and a sample removed through a syringe filter. A total of 9 g of anion exchange resin was added. The final pH was 10.8. The resin was removed by filtration and the filtrate was concentrated to an oil by rotary evaporation at 60° C.; no solids formed. The starting material, final filtrate and all intermediate samples were assayed by HPLC and ion chromatography for chloride.
The diamond (solid line) is pH and square (dashed line) is S-[2-[(1-Iminoethyl)amino]ethyl]-2-methyl-L-cysteine (percent initial, by ion chromatography). […] The diamond (solid line) is pH and triangle (broken line) is chloride (by ion chromatography).
These curves are not true titration curves since samples were withdrawn during the progress of the reaction, and since true equilibrium was not attained before the increments of resin were added. Nevertheless, the graphs of FIG. 2 and FIG. 3 illustrate the expected trends. As resin is added to the S-[2-[(1-Iminoethyl)amino]ethyl]-2-methyl-L-cysteine solution the pH rises with change in slope around pH's of 2, 9 and 11. The pH's of slower rise are representative of the pK's of the carboxylic acid, amine and amidine functional groups, respectively. Above a pH of 10, the S-[2-[(1-Iminoethyl)amino]ethyl]-2-methyl-L-cysteine concentration in solution decreases. At this point, the S-[2-[(1-Iminoethyl)amino]ethyl]-2-methyl-L-cysteine is gaining a net negative charge and is binding to the resin. […]

[3] = Solution stability of anion-exchange titration samples by HPLC (Example 8); details: fractions of resin titration
Procedure: as §1
3.3 g a sample containing about 1 g of S-[2-[(1-Iminoethyl)amino]ethyl]-2-methyl-L-cysteine di-hydrochloride was diluted to 20 g. Aliquots of prewashed Amberlite IRA400 (OH) resin was added to the solution and samples were periodically withdrawn through a syringe filter. […] The starting materials, intermediate samples and final filtrate were analyzed. […] Samples were drawn at pH of 8.13 and 1.63 and analyzed by HPLC.
In the repeat of the above experiment, the resulting samples were analyzed by HPLC. […]

[4] = Moisture sorption; details: 90% R.H. and 25° C.
Description: The novel salt is characterized by some or all of the following physical measurements: elemental analysis (such as by combustion analysis), melting point and heat of fusion (differential scanning calorimetry and thermogravimetric analysis), refractive indices (polarized light microscopy), x-ray powder diffraction pattern, moisture sorption (for example, DVS moisture balance) and vibrational signature (Raman spectrum).
FIG. 12 is a plot of a moisture sorption study of S-[2-[(1-Iminoethyl)amino]ethyl]-2-methyl-L-cysteine maleate.

[5] = physchem; details: water

## CC(=N)NCCSC[C@](C)(N)C(=O)O [S-[2-[(1-Iminoethyl)amino]ethyl]-2-methyl-L-cysteine]
[1]
  pKa: ~12.5
[2]
  pH of slower rise representative of pK of amidine group: ~11
  pH of slower rise representative of pK of amine group: ~9
  pH of slower rise representative of pK of carboxylic acid group: ~2
[3]
  degradation of titration fractions by HPLC: no degradation

## CC(=N)NCCSC[C@](C)(N)C(=O)O.O=C(O)/C=C\C(=O)O [S-[2-[(1-Iminoethyl)amino]ethyl]-2-methyl-L-cysteine maleate]
[4]
  water absorbed by weight: less than one percent
[5]
  solubility: > 230 mg/mL
